According to US20250092017A1, “2-PIPERIDYL OR 2-PYRAZOLYL SUBSTITUTED PYRIMIDINE COMPOUND SERVING AS EGFR INHIBITOR” (SUZHOU PUHE BIOPHARMA CO., LTD., priority 2022, published 2025):

How the values were obtained:
EGFR (L858R/C797S) = EGFR (L858R/C797S) (Homo sapiens, UniProt P00533, C797S/L858R); assay: MSA (Mobility Shift Assay) kinase activity, EGFR-L858R-C797S; format: biochemical
Protocol: (§1) The MSA (Mobility Shift Assay) method was used to detect the effects of small molecule inhibitors on the kinase activity of EGFR wild type and its mutants (EGFR^wt, EGFR-L858R, EGFR-L858R-T790M-C797S, EGFR-L858R-C797S).
(§2) 10 μL of kinase solution at 2.5 times the final concentration was added to the compound wells and positive control Max wells; 10 μL of 1x kinase buffer was added to the negative control Min wells. The mixture was centrifuged at 1000 rpm for 30 seconds, and the reaction plate was shaken to mix the solution well and then incubated at room temperature for 10 minutes. A mixed solution of ATP and kinase substrate at 5/3 times the final concentration was prepared in 1x kinase buffer. 15 μL of a mixed solution of ATP and substrate at 5/3 times the final concentration was added to initiate the reaction. The 384-well plate was centrifuged at 1000 rpm for 30 seconds, and shaken to mix the solution well and then incubated at room temperature for the corresponding time. 30 μL of stop detection solution was added to stop the kinase reaction, and the mixture was centrifuged at 1000 rpm for 30 seconds, and then to mixed well by shaking. The conversion rate was read using Caliper EZ Reader.
(§3) wherein: Conversion %_sample is the conversion rate reading of the sample; Conversion %_min is the mean of the negative control wells, representing the conversion rate reading of the wells without enzyme activity; Conversion %_max is the mean of the positive control wells, representing the conversion rate reading of the wells without compound inhibition.
(§4) The log (inhibitor) vs. response —Variable slope of the analysis software GraphPad Prism 5 was used to fit the dose-effect curve, where the log value of the concentration was used as the X-axis and the percentage inhibition rate was used as the Y-axis, to obtain the IC50 value of each compound on the enzyme activity.
(§5) The calculation formula is Y=Bottom+(Top-Bottom)/(1+10^((Log IC50−X)*Hill Slope))

EGFR (L858R) = EGFR (L858R) (Homo sapiens, UniProt P00533, L858R); assay: MSA (Mobility Shift Assay) kinase activity, EGFR-L858R; format: biochemical
Protocol: as §1, §2, §3, §4, §5

EGFR (wild-type) = EGFR (wild-type) (Homo sapiens, UniProt P00533); assay: MSA (Mobility Shift Assay) kinase activity, EGFR wild type; format: biochemical; settings: read-out: EGFR wt/ IC50/nM
Protocol: as §1, §2, §3, §4, §5

EGFR (L858R/T790M/C797S) = EGFR (L858R/T790M/C797S) (Homo sapiens, UniProt P00533, C797S/L858R/T790M); assay: MSA (Mobility Shift Assay) kinase activity, EGFR-L858R-T790M-C797S; format: biochemical
Protocol: as §1, §2, §3, §4, §5

[1] = target: T1, Ba/F3-TEL-EGFR-L858R-C797S (Homo sapiens, UniProt P00533, C797S/L858R, cells depend on it); assay: CellTiter-Glo proliferation, Ba/F3-TEL-EGFR-L858R-C797S; format: cell-based; settings: 72 hours, read-out: Ba/F3-TEL-EGFR-L858R-C797S IC50/nM
T1 construct: fused on or other part: N-terminal TEL (ETV6) oligomerising part fused to the EGFR intracellular/kinase part; P41212 (Transcription factor ETV6)
Protocol: (§6) Promega CellTiter-Glo reagent was used to detect the effects of small molecule inhibitors on the proliferation of five Ba/F3 cell lines (Ba/F3-FL-EGFR, Ba/F3-FL-EGFR-L858R, Ba/F3-FL-EGFR-L858R-T790M-C797S, Ba/F3-TEL-EGFR-L858R-C797S and Ba/F3-FL-EGFR-del19-C797S).
(§7) The cell lines were cultured in an incubator at 37° C. and 5% CO2. Cells were passaged regularly and cells in the logarithmic phase were used for plating. 95 μL of cell suspension was added to each well of the cell plate, and culture medium without cells (containing 0.1% DMSO) was added to the Min control wells. Substance addition for compound detection cell plate: 5 μL of 20× compound working solution was added to the cell culture plate as shown in the table below. 50 μL of DMSO-cell culture medium mixture was added to the Max control, with the final DMSO concentration of 0.1%. 5 μL of DMSO-cell culture medium mixture was added to the Max control. The final DMSO concentration was 0.1%.
(§8) The compounds to be tested were added as per the table below
(§9) Cell viability was detected by CellTiter-Glo luminescence assay. Data analysis:
(§10) The cell proliferation inhibition rate (Inhibition Rate) data was processed using the following formula: […]
(§11) wherein: RLUDrug represents the relative luminescence unit of the cells with the addition of drug, RLUMin represents the luminescence unit of the culture medium, and RLUMax represents the relative luminescence unit of the cells with the addition of DMSO.
(§12) The inhibition rates corresponding to different concentrations of compounds were calculated in EXCEL, and then the inhibition rate curve was plotted using GraphPad Prism software and related parameters including the maximum and minimum inhibition rates of cells and IC50 values were calculated.

Ba/F3-FL-EGFR = target: T2, Ba/F3-FL-EGFR (Homo sapiens, UniProt P00533); assay: CellTiter-Glo proliferation, Ba/F3-FL-EGFR; format: cell-based; settings: 72 hours, read-out: Ba/F3-FL-EGFR IC50/nM
T2 construct: FL read as full length
Protocol: as §6, §7, §8, §9, §10, §11, §12

Ba/F3-FL-EGFR-L858R = Ba/F3-FL-EGFR-L858R (Homo sapiens, UniProt P00533, L858R, cells depend on it); assay: CellTiter-Glo proliferation, Ba/F3-FL-EGFR-L858R; format: cell-based; settings: 72 hours, read-out: Ba/F3-FL-EGFR-L858R IC50/nM
Protocol: as §6, §7, §8, §9, §10, §11, §12

[2] = target: Ba/F3-FL-EGFR-L858R-T790M-C797S (Homo sapiens, UniProt P00533, T790M/C797S/L858R, cells depend on it); assay: CellTiter-Glo proliferation, Ba/F3-FL-EGFR-L858R-T790M-C797S; format: cell-based; settings: 72 hours, read-out: Ba/F3-FL-EGFR-L858R-T790M-C797S IC50/nM
Protocol: as §6, §7, §8, §9, §10, §11, §12

EGFR (L858R/C797S), sequence (P00533 25-1210 C797S/L858R): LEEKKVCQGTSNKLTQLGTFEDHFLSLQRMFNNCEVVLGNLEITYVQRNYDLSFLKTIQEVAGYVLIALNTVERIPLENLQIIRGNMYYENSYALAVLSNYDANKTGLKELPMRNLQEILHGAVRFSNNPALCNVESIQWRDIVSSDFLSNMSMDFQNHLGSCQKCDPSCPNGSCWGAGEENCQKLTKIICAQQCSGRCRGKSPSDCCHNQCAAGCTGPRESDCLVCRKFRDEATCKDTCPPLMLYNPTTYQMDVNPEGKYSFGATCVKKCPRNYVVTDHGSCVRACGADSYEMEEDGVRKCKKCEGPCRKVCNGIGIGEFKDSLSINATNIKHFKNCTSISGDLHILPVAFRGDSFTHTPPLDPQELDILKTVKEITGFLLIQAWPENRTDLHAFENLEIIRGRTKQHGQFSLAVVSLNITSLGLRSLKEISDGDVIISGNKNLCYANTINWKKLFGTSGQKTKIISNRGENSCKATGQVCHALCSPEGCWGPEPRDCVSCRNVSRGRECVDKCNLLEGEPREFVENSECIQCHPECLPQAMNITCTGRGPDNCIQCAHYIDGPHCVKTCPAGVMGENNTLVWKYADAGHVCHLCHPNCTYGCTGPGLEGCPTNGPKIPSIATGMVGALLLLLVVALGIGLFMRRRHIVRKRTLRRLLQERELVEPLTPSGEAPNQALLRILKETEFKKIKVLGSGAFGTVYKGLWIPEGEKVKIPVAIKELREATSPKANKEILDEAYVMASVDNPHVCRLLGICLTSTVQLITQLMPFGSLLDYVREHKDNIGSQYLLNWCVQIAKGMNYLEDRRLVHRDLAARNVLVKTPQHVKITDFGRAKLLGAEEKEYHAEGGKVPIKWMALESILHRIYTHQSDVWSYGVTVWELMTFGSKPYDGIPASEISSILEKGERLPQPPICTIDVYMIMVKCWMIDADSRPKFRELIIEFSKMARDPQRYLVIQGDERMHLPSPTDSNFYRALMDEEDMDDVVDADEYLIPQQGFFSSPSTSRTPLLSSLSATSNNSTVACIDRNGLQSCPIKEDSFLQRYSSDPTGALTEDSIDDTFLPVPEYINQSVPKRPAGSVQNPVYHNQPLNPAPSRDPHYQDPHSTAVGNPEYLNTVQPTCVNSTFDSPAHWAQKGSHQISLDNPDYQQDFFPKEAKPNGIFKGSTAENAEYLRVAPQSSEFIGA
EGFR (L858R), sequence (P00533 25-1210 L858R): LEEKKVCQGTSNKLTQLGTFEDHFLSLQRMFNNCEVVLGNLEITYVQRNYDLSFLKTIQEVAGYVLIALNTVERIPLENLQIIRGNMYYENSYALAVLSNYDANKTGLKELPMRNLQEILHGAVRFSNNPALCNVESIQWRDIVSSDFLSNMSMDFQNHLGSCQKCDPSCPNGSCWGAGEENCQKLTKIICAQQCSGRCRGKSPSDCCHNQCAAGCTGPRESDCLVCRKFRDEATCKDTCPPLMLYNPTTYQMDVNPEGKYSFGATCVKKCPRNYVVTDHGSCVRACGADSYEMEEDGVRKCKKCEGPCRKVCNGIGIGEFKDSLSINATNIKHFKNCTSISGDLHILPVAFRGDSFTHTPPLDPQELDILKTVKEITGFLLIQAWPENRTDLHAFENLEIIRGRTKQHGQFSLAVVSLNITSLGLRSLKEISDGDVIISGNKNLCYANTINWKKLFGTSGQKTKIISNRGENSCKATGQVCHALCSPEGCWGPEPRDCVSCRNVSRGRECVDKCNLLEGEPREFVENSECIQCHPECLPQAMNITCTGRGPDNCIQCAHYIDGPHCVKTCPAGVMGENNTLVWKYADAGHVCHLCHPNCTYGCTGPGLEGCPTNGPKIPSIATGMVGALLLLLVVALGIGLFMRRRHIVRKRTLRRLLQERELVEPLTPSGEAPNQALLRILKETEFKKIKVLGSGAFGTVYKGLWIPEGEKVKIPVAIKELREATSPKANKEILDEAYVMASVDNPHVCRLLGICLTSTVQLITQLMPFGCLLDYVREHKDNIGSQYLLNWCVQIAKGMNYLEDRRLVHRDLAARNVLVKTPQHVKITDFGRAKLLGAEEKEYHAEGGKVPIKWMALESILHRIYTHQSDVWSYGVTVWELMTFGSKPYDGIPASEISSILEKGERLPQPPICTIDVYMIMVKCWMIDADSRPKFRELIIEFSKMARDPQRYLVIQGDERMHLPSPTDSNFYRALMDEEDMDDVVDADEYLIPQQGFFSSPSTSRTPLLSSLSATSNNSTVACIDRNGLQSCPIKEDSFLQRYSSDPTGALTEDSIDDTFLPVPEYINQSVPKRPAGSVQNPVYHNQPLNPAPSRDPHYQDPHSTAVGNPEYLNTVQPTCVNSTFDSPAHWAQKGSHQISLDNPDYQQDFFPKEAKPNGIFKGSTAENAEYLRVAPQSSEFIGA
EGFR (L858R/T790M/C797S), sequence (P00533 25-1210 T790M/C797S/L858R): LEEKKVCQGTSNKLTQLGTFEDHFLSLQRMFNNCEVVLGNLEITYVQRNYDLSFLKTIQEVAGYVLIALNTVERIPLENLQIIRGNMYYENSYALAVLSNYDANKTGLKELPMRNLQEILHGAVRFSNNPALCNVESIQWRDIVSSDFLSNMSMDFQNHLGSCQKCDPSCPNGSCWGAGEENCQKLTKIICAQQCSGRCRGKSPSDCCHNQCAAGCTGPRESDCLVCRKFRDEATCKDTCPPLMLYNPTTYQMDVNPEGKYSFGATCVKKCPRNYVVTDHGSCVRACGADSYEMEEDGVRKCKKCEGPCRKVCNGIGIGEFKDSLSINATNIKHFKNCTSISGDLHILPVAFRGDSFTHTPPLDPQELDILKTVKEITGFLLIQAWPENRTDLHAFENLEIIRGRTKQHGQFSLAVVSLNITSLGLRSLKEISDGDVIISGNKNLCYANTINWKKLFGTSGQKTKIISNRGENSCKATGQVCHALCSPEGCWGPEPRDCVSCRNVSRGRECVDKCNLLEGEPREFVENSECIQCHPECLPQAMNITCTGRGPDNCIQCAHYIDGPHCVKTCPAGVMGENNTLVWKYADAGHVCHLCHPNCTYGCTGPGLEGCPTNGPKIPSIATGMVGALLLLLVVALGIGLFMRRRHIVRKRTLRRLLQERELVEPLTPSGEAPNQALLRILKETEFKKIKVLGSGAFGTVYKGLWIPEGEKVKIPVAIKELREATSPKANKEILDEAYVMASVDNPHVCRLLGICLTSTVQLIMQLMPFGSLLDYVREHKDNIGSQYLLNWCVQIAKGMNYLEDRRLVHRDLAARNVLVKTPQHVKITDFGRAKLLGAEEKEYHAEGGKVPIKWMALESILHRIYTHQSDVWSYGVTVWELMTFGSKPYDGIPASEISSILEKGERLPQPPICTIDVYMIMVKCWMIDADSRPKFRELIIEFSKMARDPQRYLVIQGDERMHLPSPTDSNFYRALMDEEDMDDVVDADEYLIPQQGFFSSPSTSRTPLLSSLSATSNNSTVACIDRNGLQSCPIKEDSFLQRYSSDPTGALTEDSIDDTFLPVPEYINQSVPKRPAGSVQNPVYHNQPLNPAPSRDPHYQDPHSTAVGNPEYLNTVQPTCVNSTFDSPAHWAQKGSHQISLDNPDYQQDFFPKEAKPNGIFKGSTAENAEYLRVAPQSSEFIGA
EGFR (wild-type), sequence (P00533 25-1210): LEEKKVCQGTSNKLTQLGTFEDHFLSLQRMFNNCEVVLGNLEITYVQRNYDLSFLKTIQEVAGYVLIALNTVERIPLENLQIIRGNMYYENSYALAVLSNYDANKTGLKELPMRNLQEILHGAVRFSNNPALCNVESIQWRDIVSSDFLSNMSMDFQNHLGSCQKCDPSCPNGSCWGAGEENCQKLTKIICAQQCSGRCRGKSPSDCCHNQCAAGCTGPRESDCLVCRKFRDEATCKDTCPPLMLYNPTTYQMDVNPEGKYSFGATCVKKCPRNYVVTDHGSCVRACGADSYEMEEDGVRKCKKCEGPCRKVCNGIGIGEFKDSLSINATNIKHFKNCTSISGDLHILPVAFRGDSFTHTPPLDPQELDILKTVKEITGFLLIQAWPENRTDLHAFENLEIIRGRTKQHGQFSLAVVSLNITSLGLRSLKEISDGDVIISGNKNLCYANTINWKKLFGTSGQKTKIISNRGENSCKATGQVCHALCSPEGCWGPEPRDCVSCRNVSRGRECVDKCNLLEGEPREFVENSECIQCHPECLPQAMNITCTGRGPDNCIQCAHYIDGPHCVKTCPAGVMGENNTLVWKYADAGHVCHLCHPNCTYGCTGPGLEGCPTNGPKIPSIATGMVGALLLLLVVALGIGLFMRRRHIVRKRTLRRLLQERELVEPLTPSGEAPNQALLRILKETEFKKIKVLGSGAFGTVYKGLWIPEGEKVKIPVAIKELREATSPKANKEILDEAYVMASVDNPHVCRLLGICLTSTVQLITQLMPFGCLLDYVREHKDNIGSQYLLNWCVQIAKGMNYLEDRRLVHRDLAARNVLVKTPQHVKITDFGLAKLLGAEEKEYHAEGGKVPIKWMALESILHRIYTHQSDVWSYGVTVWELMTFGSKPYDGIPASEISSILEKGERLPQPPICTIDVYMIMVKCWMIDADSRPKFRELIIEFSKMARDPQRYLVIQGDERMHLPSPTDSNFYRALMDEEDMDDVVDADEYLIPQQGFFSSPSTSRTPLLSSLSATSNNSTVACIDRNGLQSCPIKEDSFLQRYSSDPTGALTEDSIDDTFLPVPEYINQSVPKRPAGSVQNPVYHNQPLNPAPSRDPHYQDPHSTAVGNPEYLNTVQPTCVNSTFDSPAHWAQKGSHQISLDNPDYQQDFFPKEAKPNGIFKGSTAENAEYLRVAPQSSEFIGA

SMILES | IC50 (EGFR (L858R/C797S)) | IC50 (EGFR (L858R)) | IC50 (EGFR (wild-type)) | IC50 (EGFR (L858R/T790M/C797S)) | GI50 [1] | GI50 (Ba/F3-FL-EGFR) | GI50 (Ba/F3-FL-EGFR-L858R) | GI50 [2]
COc1cccc(-c2nccc(Nc3cc4c(C(C)C)ccc(N5CC(CS(C)(=O)=O)C5)c4cn3)n2)n1 [Compound H2] | > 100 nM | > 100 nM | > 100 nM | 71.6 nM | – | – | – | –
CC(C)c1cc(C(F)(F)F)c(N2CC3(CC(CS(C)(=O)=O)C3)C2)c2cnc(Nc3ccnc(N4CCC(O)C(F)C4)n3)cc12 (centres unmarked) [Compound P5] | > 100 nM | > 100 nM | > 100 nM | 7.1 nM | – | – | – | –
CC(C)n1c(=O)nc(N2CC(CS(C)(=O)=O)C2)c2cnc(Nc3ccnc(N4CCC(O)C(F)C4)n3)cc21 (centres unmarked) [Compound P19] | > 100 nM | > 100 nM | > 100 nM | 3.4 nM | – | – | – | –
CC(C)c1ccc(N2CC3(CC(S(C)(=O)=O)C3)C2)c2cnc(Nc3ccnc(N4CCC(O)CC4)n3)cc12 [Compound P4] | > 100 nM | 43.3 nM | > 100 nM | 4.6 nM | – | – | – | –
CC(C)n1c(=O)cc(N2CC(CS(C)(=O)=O)C2)c2cnc(Nc3ccnc(N4CCC(O)C(F)C4)n3)cc21 (centres unmarked) [Compound P14] | 11.8 nM | 9.5 nM | 80.7 nM | 0.12 nM | – | – | – | –
CC(C)c1ccc(N2CC(CC(N)=O)C2)c2cnc(Nc3ccnc(N4CCC(O)C(F)C4)n3)cc12 (centres unmarked) [Compound P7] | 22 nM | 14 nM | 50.5 nM | 0.21 nM | 271 nM | 7380 nM | 771 nM | 554 nM
CC(C)c1ccc(N2CC(NC(=O)N(C)C)C2)c2cnc(Nc3ccnc(N4CCC(O)C(F)C4)n3)cc12 (centres unmarked) [Compound P10] | 41 nM | 43.2 nM | > 100 nM | 0.56 nM | – | – | – | –
CC(C)c1ccc(N2CC(CP(C)(C)=O)C2)c2cnc(Nc3ccnc(N4CCC(O)C(F)C4)n3)cc12 (centres unmarked) [Compound P9] | > 100 nM | > 100 nM | > 100 nM | 3.4 nM | – | – | – | –
CNC(=O)CN1CC(c2ccc(C(C)C)c3cc(Nc4ccnc(N5CCC(O)C(F)C5)n4)ncc23)C1 (centres unmarked) [Compound P15] | > 100 nM | 98.9 nM | > 100 nM | 1.7 nM | – | – | – | –
CC(C)c1ccc(N2CC(NS(C)(=O)=O)C2)c2cnc(Nc3ccnc(N4CCC(O)CC4)c3)nc12 [Compound P6] | 89.8 nM | 45.2 nM | > 100 nM | 6.1 nM | – | – | – | –
CC(C)c1ccc(N2CC(c3ccc[nH]c3=O)C2)c2cnc(Nc3ccnc(N4CCC(O)C(F)C4)n3)cc12 (centres unmarked) [Compound P22] | > 100 nM | > 100 nM | > 100 nM | 3.2 nM | – | – | – | –
CC(C)c1ccc(N2CC(CC(N)=O)C2)c2cnc(Nc3ccnc(-c4cnn(S(=O)(=O)C5CC5)c4)n3)cc12 [Compound H4] | 2.9 nM | 2.1 nM | 6.1 nM | 0.3 nM | 39 nM | 628 nM | 46 nM | 146 nM
